From PubChem BioAssay AID179 (DTP/NCI, 2004)
Where “and” joins values, the source holds several entries; their conditions need not be identical. Identical values can stand only once. Calls of active or inactive are those of the source.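 How the source made its calls: active means compounds giving half or more protection of infected cells from virus-caused growth loss, again on retest; inactive means the rest.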 Where a SMILES comes first, the peptide text is derived from it. The star is where a group is joined. Cbz = O=C(OCc1ccccc1)*

System: CEM cells HIV-1 protection, formazan growth assay
Assay: NCI AIDS Antiviral Assay
Settings: for IC50: measured here: growth of uninfected CEM cells
How it was run: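 Soluble formazan readout of cell growth; CEM cells ± HIV-1; 5 drug concs. ≥50% protection → retest; ≥50% again = moderately active; reproducible 100% = confirmed active.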

| SMILES | EC50 | IC50 | outcome |
| --- | --- | --- | --- |
| COc1c(Cl)cc(C(=CCN[C@@H]2CC[C@@]3(C)[C@@H](CC[C@@H]4[C@@H]3CC[C@]3(C)[C@@H]([C@H](C)CCCC(C)C)CC[C@@H]43)C2)c2cc(Cl)c(OC)c(C(=O)O)c2)cc1C(=O)O | > 100 µM | 61.7 µM |  |
| CC1(C)C(=O)C(O)=CC2C1=CCC1C2(C)C(=O)CC2(C)C(C(C)(O)C(=O)CC(O)C(C)(C)O)C(O)CC12C (stereo unspecified) | > 20 µM | 1.32 µM |  |
| C[C@@H]1O[C@@H](O[C@H]2CC[C@]3(C=O)[C@H]4CC[C@]5(C)[C@@H](c6ccc(=O)oc6)CC[C@]5(O)[C@@H]4CC[C@]3(O)C2)[C@H](O)[C@H](O)[C@H]1O[C@@H]1O[C@H](CO)[C@@H](O)[C@H](O)[C@H]1O | > 0.2 µM | 0.0038 µM |  |
| CNCc1c(S)ccc2ccccc12 |  |  | inactive |
| CC1=NN(C(=O)c2ccccc2O)C(=O)/C1=C/c1ccc(O)cc1 | > 30.9 µM | 0.0589 µM |  |
| CC1(C)C(=O)c2cc3ccccc3nc2-c2ccccc21 | > 200 µM | 24.5 µM |  |
| C[N+](C)(C)CC1C2C=CC(C2)C1CO (stereo unspecified) | > 275 µM | > 275 µM |  |
| CC1=C2[C@@H](c3ccccc3)C3C=CC2(C=C3C(F)(F)F)N(C(=O)NC2CCCCC2)C1=O (stereo partly specified) | > 16.2 µM | > 16.2 µM |  |
| CCOC(=O)c1c(C)[nH]c(=S)c(C#N)c1-c1cccc2ccccc12 | > 200 µM | 28.8 µM |  |
| COc1ccccc1N1C(=O)/C(=C/c2ccc(N(CCC#N)CCC#N)cc2C)N=C1c1cc([N+](=O)[O-])ccc1Cl |  |  | inactive |
| Cc1c(C(=O)C/C(=N/NC(=O)CC#N)C(N)=O)[n+](=O)c2ccccc2n1[O-] | > 26.9 µM | > 26.9 µM |  |
| O=C(NCCCl)N1CCC(CN=c2cc3n(-c4ccc(Cl)cc4)c4ccccc4nc-3cc2Nc2ccc(Cl)cc2)CC1 | > 100 µM | 17 µM |  |
| CCOP(=O)(OCC)C(C)(CC)NC(=O)C(C(F)(F)F)C(F)(F)F (stereo unspecified) | > 200 µM | 105 µM | inactive |
| Cc1nc(-[n+]2nc(-c3ccncc3)nn2-c2ccccc2)sc1C | > 200 µM | 17 µM |  |
| N#Cc1c(-c2ccccc2)cc(-c2ccccc2)n(C2OC(CO)C(O)C(O)C2O)c1=O (stereo unspecified) | > 219 µM | 214 µM and > 60.3 µM |  |
| CCC[CH2][Sn]([CH2]CCC)([S]C1=NCCS1)[S]C1=NCCS1 | > 39.8 µM | 0.759 µM |  |
| Cc1ccccc1NC(=O)Cc1csc2[n+]1C(=O)/C(=C/c1ccc([N+](=O)[O-])cc1)S2 | > 200 µM | 38.9 µM |  |
| CN1C(=O)c2ccccc2C(C(=O)O)C1c1ccc2c(c1)OCO2 (stereo unspecified) | > 151 µM | > 151 µM |  |
| O=C(c1c(F)c(F)c(F)c(F)c1F)N1CCN(C(=O)c2c(F)c(F)c(F)c(F)c2F)C1=S | > 200 µM | 1.26 µM |  |
| CN1C(=O)C2CC(O)C(SC3CC4C(=O)N(C)C(=O)C4CC3O)CC2C1=O (stereo unspecified) | > 200 µM | > 200 µM |  |
| [O-]/[N+](=N/c1ncc(-c2ccccc2)cn1)c1ncc(-c2ccccc2)cn1 | > 200 µM | 31.6 µM |  |
| Cc1ncc2c(=O)c3c(oc2n1)c1ccccc1n3Cc1ccccc1 | > 200 µM | > 200 µM |  |
| CCOC(=O)C12CCCC1(O)N(NC(=O)c1cccc(Cl)c1)C(C)=C2C(=O)OC (stereo unspecified) | > 427 µM | 123 µM |  |
| CN1CCN(CCCN2c3ccccc3Sc3ccccc32)CC1 | > 741 µM | 33.1 µM |  |
| N#CC(C(=O)C(=O)C(C#N)c1ccc(Br)cc1)c1ccc(Br)cc1 (stereo unspecified) |  |  | inactive |
| O=C1CC2C3CC4CC(C3)CC2(C4)O1 (stereo unspecified) | > 200 µM | > 200 µM |  |
| BrC(/C=N/Nc1nnc(-c2ccccc2)c(-c2ccccc2)n1)C(Br)c1ccccc1 (stereo unspecified) | > 13.5 µM | > 13.5 µM |  |

| SMILES | EC50 | IC50 | outcome |
| --- | --- | --- | --- |
| O=C(CCN1CCN(c2cccc(Cl)c2)CC1)N1CCc2c([nH]c3ccccc23)C1c1cccnc1 (stereo unspecified) | > 10.5 µM | > 10.5 µM |  |
| COc1ccc(C)[n+]([O-])n1 | > 200 µM | > 200 µM |  |
| O=C(O)C(F)(OC(F)(F)C(F)(OC(F)(F)C(F)(F)C(F)(F)F)C(F)(F)F)C(F)(F)F (stereo unspecified) | > 200 µM | > 200 µM |  |
| Cc1cn(C2CCC(COP(=O)(OCOC(=O)C(C)(C)C)OCOC(=O)C(C)(C)C)O2)c(=O)[nH]c1=O (stereo unspecified) |  |  | active |
| O=C(Nc1ccccc1CCl)Nc1ccccc1CCl (tested in a mixture with another compound) | > 200 µM | 41.7 µM |  |
| CNC(=O)O/N=C(C)/C(C)=N/OC(=O)NC |  |  | inactive |
| CCCCCCCCCCCc1c(O)c(O)cc2nc3ccc(SCCC)cc3nc12 | > 16.2 µM | 9.33 µM |  |
| Cc1ccc2ccccc2c1CSc1ncnc2c1ncn2C1OC(CO)C(O)C1O (stereo unspecified) | > 200 µM | 24.5 µM |  |
| Cc1nc(N)sc1C(=O)Nc1ncn[nH]1 | > 200 µM | 117 µM |  |
| N#Cc1nc(CN2C(=O)c3ccccc3C2=O)oc1N | 5.89 µM | > 200 µM |  |
| Cc1ccc(S(=O)(=O)N/N=C/c2oc(-c3cccc([N+](=O)[O-])c3)c(-c3cccc([N+](=O)[O-])c3)c2[N+](=O)[O-])cc1 | > 46.8 µM | > 46.8 µM |  |
| O=C(Nc1ccccc1)[C@H](O)[C@@H](O)C(=O)Nc1ccccc1 | > 60.3 µM | 49 µM |  |
| Cc1c(-c2cc3n(n2)C(c2cccs2)C(C#N)=C(c2ccccc2)N3)c(=O)n(-c2ccccc2)n1C (stereo unspecified) |  |  | inactive |
| CCOC(=O)c1cc2c(OC(C)=O)ccc(OC(C)=O)c2s1 | > 2 µM | 0.0794 µM |  |
| CC1COC(C)(C)P(=O)(c2ccccc2)C1 (stereo unspecified) | > 1050 µM | > 1050 µM |  |
| N#Cc1c2c(cn3c1nc1ccccc13)Cc1ccccc1-2 | > 200 µM | > 200 µM |  |
| CC(=O)/C(=C/c1ccc(N(C)C)cc1)c1ccccc1 | > 19.5 µM | > 19.5 µM |  |
| C=C(Br)CN1CCC2(c3ccccc3)C(O)C([Se]c3ccccc3)CCC12 (stereo unspecified) | > 27.5 µM | > 27.5 µM |  |
| Cc1c2c(n3c(nc4ccccc43)c1C#N)N(c1ccc(F)cc1)CC2 | > 200 µM | > 200 µM |  |
| Cc1cc(S(=O)(=O)Nc2nc3cc(-c4ccc(Cl)cc4)sc3c(=O)n2N)c(S)cc1Cl | > 200 µM | 110 µM |  |
| O=C(CC1=NC2NN(c3ccccc3)C(=O)C2=C1CC(=O)c1cccc([N+](=O)[O-])c1)c1cccc([N+](=O)[O-])c1 (stereo unspecified) | > 129 µM | > 129 µM |  |
| Cc1noc(C(F)(F)Sc2ncccn2)n1 | 174 µM | > 200 µM |  |
| CCc1cc2c(c3c1CCCC3=O)CC1(C2)Cc2cc(CC)c3c(c2C1)C(=O)CCC3 | > 200 µM | 138 µM |  |
| [CH3][Ge]([CH3])([CH2]CC#N)[S]c1ccccc1 | > 200 µM | 20 µM |  |
| O=[N+]([O-])c1ccc(-n2cccc2)cc1 | > 200 µM | 22.9 µM |  |
| OCCSCC/C(=N\N=C(/CCSCCO)c1ccccc1)c1ccccc1 | > 87.1 µM | 34.7 µM |  |
| Cc1occc1C(=S)Nc1ccc(Cl)c(/C=N/OC2CCCC2)c1 | 0.174 µM | 14.5 µM |  |

| SMILES | EC50 | IC50 | outcome |
| --- | --- | --- | --- |
| Cc1nnc(Cc2ccccc2)c2n[nH]c(C)c12 | > 398 µM | 110 µM |  |
| CC(=O)C(C(C)=O)C1c2ccccc2-n2nc(-c3ccccc3)c(O)c21 (stereo unspecified) | > 100 µM | 0.794 µM |  |
| CCC(=O)CCCC=C(c1cc(Cl)c(OC)c(C=O)c1)c1cc(Cl)c(OC)c(C=O)c1 | > 200 µM | 1.12 µM |  |
| COc1cccc2c1C(=O)c1c(O)c3c(c(O)c1C2=O)C[C@@](O)(/C(C)=N\O)C[C@@H]3OC1CC(N)C(O)C(C)O1 (stereo partly specified) | > 0.2 µM | 0.0646 µM |  |
| CCOP(=O)(OCC)C1C(=O)OC2(C)CCC1C2(C)C (stereo unspecified) |  |  | inactive |
| CCC(Oc1c2ccoc2c(OC)c2oc(=O)cc(O)c12)C(=O)O (stereo unspecified) | > 269 µM | > 269 µM |  |
| CSc1nc(-c2ccccc2)[nH]c(=O)n1 | > 200 µM | > 200 µM |  |
| CC(=O)Nc1ccc(OC2=CCN(C)CC2)cc1 | > 200 µM | > 200 µM |  |
| Cn1c2ccccc2c(=NNc2cccc(C(=O)O)c2)c2ccccc21 | > 200 µM | 3.8 µM |  |
| CCCC1C(=O)N2C(N(C)C)=Nc3ccc(C)cc3N2C1=O (stereo unspecified) | > 832 µM | 457 µM |  |
| CC(C)CCCC(C)[C@H]1CC[C@H]2[C@@H]3CC[C@H]4C[C@@H](CCC=C(c5cc(Cl)c(OCc6ccccc6B6OC(C)(C)C(C)(C)O6)c(C(=O)OCc6ccccc6B6OC(C)(C)C(C)(C)O6)c5)c5cc(Cl)c(OCc6ccccc6B6OC(C)(C)C(C)(C)O6)c(C(=O)OCc6ccccc6B6OC(C)(C)C(C)(C)O6)c5)CC[C@]4(C)[C@H]3CC[C@]12C (stereo partly specified) | > 126 µM | > 126 µM |  |
| O=C(CCCc1ccccc1)NO |  |  | inactive |
| Clc1ccccc1CN1COc2c(ccc3ccccc23)C1 | > 200 µM | 28.8 µM |  |
| COc1ccc(C2S/C(=C\c3ccc(OC)cc3OC)C(=O)N2NC(=O)Cc2ccccc2)cc1 (stereo unspecified) | > 52.5 µM | > 52.5 µM |  |
| CSc1ncnc2c1C[P+](Cc1ccccc1)(c1ccccc1)CC2 (stereo unspecified) | > 562 µM | > 562 µM |  |
| C=C1C(=O)OC2CC(C)C3CC(O)OC(OCC)C3(C)CC12 (stereo unspecified) | > 83.2 µM | 15.5 µM |  |
| C/C(=N\NS(=O)(=O)c1ccc(C)cc1)c1ccccn1 | > 200 µM | 58.9 µM |  |
| O=C(NO)NCCCl | > 200 µM | > 200 µM |  |
| C1CC[C@H]2SSC3CCCC[C@H]3SSC2C1 (stereo partly specified) | > 17.8 µM | > 17.8 µM |  |
| Cn1c(=O)c2c(nc3n2C(CCl)CO3)n(C)c1=O (stereo unspecified) |  |  | inactive |
| C/C=C/[C@@]1(OC(=O)c2ccccc2)C[C@@H]2CCCC[C@@H]21 |  |  | inactive |
| CCN(CC)C(=C(C(Cl)=C(Cl)Cl)[N+](=O)[O-])N(CC)CC | > 200 µM | 117 µM |  |
| COc1cccc(NC(=O)CC(=O)NN2C(=O)/C(=C/c3ccc(N(CCC#N)CCC#N)cc3)N=C2c2cc([N+](=O)[O-])ccc2Cl)c1 | > 11 µM | 7.24 µM |  |
| CCOC(=O)CNC(=O)C(NC(=O)C1CCCN1C(=O)OCc1ccccc1)C(C)CC (stereo not drawn) (Cbz-Pro-Ile-Gly-OEt; configuration not given here) | > 562 µM | 34.7 µM |  |
| COCN1C(=O)CN=C(c2ccccc2)c2cc(NO)ccc21 | 16.2 µM | 21.9 µM |  |
| C[N+]1(CC(=O)O)C2CCC1CC(O)C2 (stereo unspecified) | > 200 µM | > 200 µM |  |
